In patent US12673017B2, “Ultra-mild, concentrated and self-preserving cleansing compositions for personal care” (GALAXY SURFACTANTS LTD, priority 2022, dated 2026):

Tested on: blood capillaries of chorioallantoic membrane of hen's fertilized egg
Assay: HET-CAM test (hen's egg test on chorioallantoic membrane, Invittox protocol 47)
Design: species or system White Leghorn chicken
Settings: for Irritancy Score by HET-CAM: Table 2, individual surfactants
Excerpt: The HET-CAM (Hen's egg test on chorioallantoic membrane, as per Invittox Protocol 47) method. The hen's egg test on Chorioallantoic Membrane (HET-CAM) is an alternative in-vitro method developed by Luepke et al. to substitute Draize test that was done on rabbits. (Luepke N. Hen's egg chorioallantoic membrane test for irritation potential. Food Chem Toxicol. 1985; 23(2):287-291). It is subsequently modified by […] et al. ([…] Test. The […]. Databank of in-vitro techniques. […] Subsequently, the methodology is successfully adopted to personal care by […] et al. ([…], Bracher M, Courtellemont P, de Silva O. The HET-CAM, a useful in vitro assay for assessing the eye irritation properties of cosmetic formulations and ingredients. Toxicol. […] The egg's shell is opened at the side of the air chamber, and the egg white membrane is removed while avoiding any damage to the fine blood vessels. […] Based on Irritation score the damaging potential is classified into four categories as described in the table 1 below. White Leghorn chicken eggs (up to 9 days of incubation) are candled to ensure that all are viable. Egg shell is marked using a rotating dentist-sawblade and the section of the shell is removed. The membrane is carefully moistened with 0.9% NaCl solution and the eggs are replaced in incubator until ready for assaying. […] Onset of haemorrhage (Bleedings), vascular lysis (Blood vessel disintegration), coagulation (protein denaturation intra and extra vascular) is monitored. The onset of the biological endpoints is recorded in number of seconds and the irritancy scores are calculated as per formula prescribed in the protocol document. The irritancy score is broadly divided into four different categories of damaging potential as described in Table 1.

CCCCCCCCCCCCOS(=O)(=O)[O-].[Na+] [Sodium lauryl sulphate]
Irritancy score (IS) by HET-CAM: around 16 | Irritancy Score by HET-CAM (1% test solution): 16.7 | C, calculated coagulation part of IS (Table 3b): 5.0 | H, calculated haemorrhage part of IS (Table 3b): 4.5 | IS (irritation score) (Table 3b): 15.1 | L, calculated lysis part of IS (Table 3b): 5.6 | C, time for appearance of coagulation (Table 3b, 1% test solution): 134 s | H, time for appearance of haemorrhage (Table 3b, 1% test solution): 31 s | L, time for appearance of lysis (Table 3b, 1% test solution): 63 s | C, time for appearance of coagulation (Table 6a): 134 s | Calculation C (Table 6a): 5.0 | Calculation H (Table 6a): 4.5 | Calculation L (Table 6a): 5.6 | H, time for appearance of haemorrhage (Table 6a): 31 s | IS (irritation score) (Table 6a): 15.1 | L, time for appearance of lysis (Table 6a): 63 s | C, calculated coagulation part of score (Table 12): 5.0 | C, time for appearance of coagulation (Table 12): 134 s | H, calculated haemorrhage part of score (Table 12): 4.5 | H, time for appearance of haemorrhage (Table 12): 31 s | Irritancy score (Table 12): 15.1 | L, calculated lysis part of score (Table 12): 5.6 | L, time for appearance of lysis (Table 12): 63 s

Lauramido propyl PG dimonium chloride phosphate
Irritancy Score by HET-CAM (1% test solution): 8.0

Cocamido propyl sulphobetaine
Irritancy Score by HET-CAM (1% test solution): 10

Lauryl glucoside
Irritancy Score by HET-CAM (1% test solution): 6.5

Caprylyl/capryl glucoside
Irritancy Score by HET-CAM (1% test solution): 8

Cocomido propyl betaine
Irritancy Score by HET-CAM (1% test solution): 10.8

Cocamidopropyl PG dimonium chloride phosphate
Irritancy Score by HET-CAM (1% test solution): 7.5
